Experimental data published in article PMC6272905, “In Vitro and In Vivo Characterization of Selected Fluorine-18 Labeled Radioligands for PET Imaging of the Dopamine D3 Receptor” (Molecules, 2016).

Tests used:
[1] = Free fraction in rat plasma; type: in vitro ADME; conditions: rat plasma, Figure 3b
Method: The free fraction in vitro was determined by adding the respective radioligand (100 kBq) to plasma or CSF (200 µL) and mixed vigorously. Aliquots of 20–50 µL were transferred to size exclusion chromatography columns (MicroSpin G-50; GE Healthcare GmbH, Solingen, Germany, centrifuged for two min at 2000 rpm, and the radioactivity in the filtrate and in the resin were measured in the gamma-counter. Three independent experiments were performed in triplicates.
For the ex vivo determination of the radioligands binding to proteins the respective tracer (15 MBq) was administered intravenous to male Sprague Dawley rats (200–250 g) under isoflurane anesthesia. Blood samples were drawn intravenous after 5, 15 and 30 min and centrifuged for 5 min at 2000 rpm in heparin-coated vials. An aliquot of 50 µL was taken from the supernatant and added to an equal volume of water (10% TFA). The protein precipitate was centrifuged off for 5 min at 25,000 rpm and analyzed together with a further 50 µL aliquot of the supernatant in the gamma-counter. Two independent experiments were performed.

D3 receptor = biological target: T1, D3 receptor (Rattus norvegicus, UniProt P19020); assay: In vitro autoradiography of coronal rat brain sections; type: binding; conditions: displacement with BP897
T1 construct: In vitro autoradiography of coronal rat brain sections after incubation with the respective radioligand; from tissue; host or cells: coronal brain cryosections (20 µm) of male Sprague Dawley rats
T1 sequence (P19020 whole entry): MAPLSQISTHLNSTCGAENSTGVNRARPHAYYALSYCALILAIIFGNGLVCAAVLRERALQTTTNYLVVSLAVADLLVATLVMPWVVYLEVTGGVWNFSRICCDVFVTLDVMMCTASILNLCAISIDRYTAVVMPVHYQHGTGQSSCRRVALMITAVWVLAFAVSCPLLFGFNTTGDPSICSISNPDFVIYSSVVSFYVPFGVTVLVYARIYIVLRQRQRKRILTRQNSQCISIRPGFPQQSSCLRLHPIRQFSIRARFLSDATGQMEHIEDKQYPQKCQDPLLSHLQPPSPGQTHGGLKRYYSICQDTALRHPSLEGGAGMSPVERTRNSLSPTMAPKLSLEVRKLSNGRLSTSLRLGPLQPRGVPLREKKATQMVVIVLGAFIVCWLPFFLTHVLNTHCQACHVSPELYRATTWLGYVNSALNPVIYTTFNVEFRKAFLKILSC
Method: Male Sprague Dawley rats (200–250 g) were sacrificed by decapitation under deep isoflurane anesthesia and brains were removed and frozen in cooled hexane at −70 °C. Coronal brain sections (20 µm) were cut on a cryostat microtome (HM550, Microm-Thermo Fisher Scientific, Walldorf, Germany) and thaw-mounted on covered glass slides (Histobond®, Marienfeld, Lauda Königshofen, Germany). The thaw mounted sections were stored at −20 °C up to 14 days.
The cryostat sections were pre-incubated for 15 min in incubation buffer (50 mM Tris-HCl, 40 mM NaCl, pH 7.4) at room temperature. The sections were then placed in incubation buffer containing 5 MBq of the respective tracer. For displacement studies BP897 (50 nM or 1 µM) was added. The sections were incubated at room temperature for 45 min and afterwards washed in ice cold incubation buffer for 3 × 5 min. Subsequently, they were dipped in water and after drying placed on a phosphor imaging screen (Fujitsu, Berlin, Germany) over night. The screens were analyzed with a DUERR Medical HD-CR 35 Bio (Raytest, Straubenhardt, Germany) and evaluated using the software AIDA image analyzer (Raytest). For anatomical identification of brain regions, the sections were compared with figures in the rat brain atlas.

[2] = In vivo stability in blood of living rats (radiometabolites); design: species or system rat
Method: For the determination of radioligand stability in vivo and detection of radiometabolites the respective radiotracer (15 MBq) was administered intravenous to male Sprague Dawley rats (200–250 g) under isoflurane anesthesia. Blood samples were drawn intravenous after 5, 15 and 30 min and centrifuged for 5 min at 2000 rpm in heparin-coated vials. An aliquot of 50 µL was taken from the supernatant and added to an equal volume of water (10% TFA). The protein precipitate was centrifuged off for 5 min at 25,000 rpm and an aliquot of the supernatant was fractioned with HPLC (Chromolith RP-18e, 100 mm × 4.6 mm, 4 mL/min, solvent A: water (0.1% TFA), solvent B: acetonitrile (0.1% TFA), gradient A/B: 90:10 to 0:100 in 15 min, λ = 214 nm). The fractions were then analyzed in the gamma-counter. To identify the fractions containing the intact radioligand, the retention time and fractioning of the respective tracer was previously assessed. Two independent experiments were performed.

[3] = design: method as in PMID 24339325, PMID 26707848; conditions: experimental, pH 7.4, n = 6, previously reported; cited from earlier work

- free radioligand in rat plasma [1]: 80%
- binding pattern in rat brain sections (D3 receptor): D3 specific binding was visible
- intact tracer in rat plasma ([2]; 5 min after i.v. injection): 49%
- intact tracer in rat plasma ([2]; 30 min after i.v. injection): 37%
Compound: COc1ccccc1N1CCN(CCCCNC(=O)/N=N/c2ccc([18F])cc2)CC1 [[^18F]2b]
- Log D7.4 [3]: 2.10 ± 0.10
